Results from patent US4199504A (priority 1978, dated 1980).

What was measured:
[1] = Titration pKa' in 66 percent DMF; type: physicochemical
[2] = tested on: experimental malignancies; details: naturally-occurring Vinca alkaloids; prior patents; cited from earlier work
P388 leukemia = P388 leukemia transplanted in mice, tumor inhibition or prolongation of survival; type: in vivo
Method: (§1) The compounds of this invention and those preparable by the process disclosed herein are active against transplanted tumors in mice in vivo.
(§2) The following table--Table 1--gives the results of experiments in which mice bearing transplanted Gardner lymphosarcoma (GLS), C3 H mammary tumor, B16 melanoma, P 1534(J) leukemia, P388 leukemia or 755 adenocarcinoma were treated with a compound of this invention. In the table, column 1 gives the name of the compound; column 2, the tumor system employed; column 3, the dosage schedule and column 4, the percent inhibition of tumor growth or increased life span.

B16 melanoma = B16 melanoma transplanted in mice, tumor inhibition or prolongation of survival; type: in vivo
Method: as §1, §2

Row | SMILES | pKa' [1] | pKa' (first value) [1] | active in the treatment of experimental malignancies in animals [2] | further results
1 | CCC12CN3CCc4c([nH]c5ccccc45)C(C(=O)OC)(c4cc5c(cc4OC)N(C)C4C(O)(C(=O)NCCSSCCNC(=O)C6(O)C(O)C7(CC)C=CCN8CCC9(c%10cc(C%11(C(=O)OC)CC%12CN(CCc%13c%11[nH]c%11ccccc%13%11)CC%11(CC)OC%12%11)c(OC)cc%10N(C)C69)C87)C(O)C6(CC)C=CCN7CCC54C76)CC(C3)C1O2 (stereo not drawn) [bis[β-(4-desacetylleurosine C-3 carboxamido)ethyl]disulfide] | 7.0 | 5.3 | – | –
2 | CCC1CC2CN(CCc3c([nH]c4ccccc34)C(C(=O)OC)(c3cc4c(cc3OC)N(C)C3C(O)(C(=O)OC)C(OC(C)=O)C5(CC)C=CCN6CCC43C65)C2)C1 (stereo not drawn) [deoxy VLB "A"] | – | – | active | –
3 | CCC1(O)CN2CCc3c([nH]c4ccccc34)C(C(=O)OC)(c3cc4c(cc3OC)N(C)C3C(O)(C(=O)OC)C(OC(C)=O)C5(CC)C=CCN6CCC43C65)CC(C2)C1O (stereo not drawn) [vincadioline] | – | – | active | –
4 | CC[C@]12CN3CCc4c([nH]c5ccccc45)[C@@](C(=O)OC)(c4cc5c(cc4OC)N(C=O)[C@H]4[C@@](O)(C(=O)OC)[C@H](OC(C)=O)[C@]6(CC)C=CCN7CC[C@]54[C@@H]76)C[C@@H](C3)[C@H]1O2 [leuroformine] | – | – | active | –
5 | CC[C@]1(O)C[C@@H]2CN(CCc3c([nH]c4ccccc34)[C@@](C(=O)OC)(c3cc4c(cc3OC)N(C)[C@H]3[C@@](O)(C(=O)OC)[C@H](OC(C)=O)[C@]5(CC)C=CCN6CC[C@]43[C@@H]65)C2)C1 [vincaleukoblastine] | – | – | active | –
6 | CC[C@]1(O)C[C@H]2CN(CCc3c([nH]c4ccccc34)[C@@](C(=O)OC)(c3cc4c(cc3OC)N(C=O)[C@H]3[C@@](O)(C(=O)OC)[C@H](OC(C)=O)[C@]5(CC)C=CCN6CC[C@]43[C@@H]65)C2)C1 [leurocristine] | – | – | active | –
7 | CCC1(O)CC2CN(CCc3c([nH]c4ccccc34)C(C(=O)OC)(c3cc4c(cc3OC)N(C)C3C(O)(C(=O)NCCCCCCNC(=O)C5(O)C(O)C6(CC)C=CCN7CCC8(c9cc(C%10(C(=O)OC)CC%11CN(CCc%12c%10[nH]c%10ccccc%12%10)CC(O)(CC)C%11)c(OC)cc9N(C)C58)C76)C(O)C5(CC)C=CCN6CCC43C65)C2)C1 (stereo not drawn) [1,6-bis(4-Desacetyl VLB C-3 carboxamido)hexane disulfate] | – | – | – | Percent Inhibition or Prolongation of Survival Time (P388 leukemia; P388, 0.9 mg./kg. × 3): 27%; Percent Inhibition or Prolongation of Survival Time (P388 leukemia; P388, 1.2 mg./kg. × 3): 74%
8 | CCC1(O)CC2CN(CCc3c([nH]c4ccccc34)C(C(=O)OC)(c3cc4c(cc3OC)N(C)C3C(O)(C(=O)OC)CC5(CC)C=CCN6CCC43C65)C2)C1 (stereo not drawn) [4-desacetoxyvinblastine] | – | – | active | –
9 | CCC12CN3CCc4c([nH]c5ccccc45)C(C(=O)OC)(c4cc5c(cc4OC)N(C)C4C(O)(C(=O)NCCSSCCNC(=O)C6(O)C(O)C7(CC)C=CCN8CCC9(c%10cc(C%11(C(=O)OC)CC%12CN(CCc%13c%11[nH]c%11ccccc%13%11)CC%11(CC)OC%12%11)c(OC)cc%10N(C)C69)C87)C(O)C6(CC)C=CCN7CCC54C76)CC(C3)C1O2 (stereo not drawn) [bis[β-(4-Desacetylleurosine C-3 carboxamido)ethyl]disulfide disulfate] | – | – | – | Percent Inhibition or Prolongation of Survival Time (P388 leukemia; P388, 15 mg./kg. × 3): 46%; Percent Inhibition or Prolongation of Survival Time (P388 leukemia; P388, 30 mg./kg. × 3): 55%
10 | CCC1(O)CC2CN(CCc3c([nH]c4ccccc34)C(C(=O)OC)(c3cc4c(cc3OC)N(C)C3C(O)(C(=O)NCCCSSCCCNC(=O)C5(O)C(O)C6(CC)C=CCN7CCC8(c9cc(C%10(C(=O)OC)CC%11CN(CCc%12c%10[nH]c%10ccccc%12%10)CC(O)(CC)C%11)c(OC)cc9N(C)C58)C76)C(O)C5(CC)C=CCN6CCC43C65)C2)C1 (stereo not drawn) [bis [γ-(4-desacetyl VLB C-3 carboxamido)propyl]disulfide disulfate] | – | – | – | Percent Inhibition or Prolongation of Survival Time (B16 melanoma; B16, 0.6 mg./kg. × 3): 99%; number of indefinite survivors (B16 melanoma; B16, 0.6 mg./kg. × 3): 8; Percent Inhibition or Prolongation of Survival Time (B16 melanoma; B16, 0.9 mg./kg. × 3): 61%; number of indefinite survivors (B16 melanoma; B16, 0.9 mg./kg. × 3): 5; Percent Inhibition or Prolongation of Survival Time (B16 melanoma; B16, 1.2 mg./kg. × 3): 68%; number of indefinite survivors (B16 melanoma; B16, 1.2 mg./kg. × 3): 8
11 | CCC1(O)CC2CN(CCc3c([nH]c4ccccc34)C(C(=O)OC)(c3cc4c(cc3OC)N(C)C3C(O)(C(=O)NCCSCCNC(=O)C5(O)C(O)C6(CC)C=CCN7CCC8(c9cc(C%10(C(=O)OC)CC%11CN(CCc%12c%10[nH]c%10ccccc%12%10)CC(O)(CC)C%11)c(OC)cc9N(C)C58)C76)C(O)C5(CC)C=CCN6CCC43C65)C2)C1 (stereo not drawn) [bis[β-(4-Desacetyl VLB C-3 carboxamido)ethyl]sulfide disulfate] | – | – | – | Percent Inhibition or Prolongation of Survival Time (P388 leukemia; P388, 0.6 mg./kg. × 3): 34%; Percent Inhibition or Prolongation of Survival Time (P388 leukemia; P388, 0.9 mg./kg. × 3): 49%; Percent Inhibition or Prolongation of Survival Time (P388 leukemia; P388, 1.2 mg./kg. × 3): 33%
12 | CCC1(O)CC2CN(CCc3c([nH]c4ccccc34)C(C(=O)OC)(c3cc4c(cc3OC)N(C)C3C(O)(C(=O)OC)C(OC(C)=O)C5(CC)C=CCN6CCC43C65)C2)C1 (stereo not drawn) [leurosidine] | – | – | active | –
13 | CCC1(O)CC2CN(CCc3c([nH]c4ccccc34)C(C(=O)OC)(c3cc4c(cc3OC)N(C)C3C(O)(C(=O)NCCCSSCCCNC(=O)C5(O)C(O)C6(CC)C=CCN7CCC8(c9cc(C%10(C(=O)OC)CC%11CN(CCc%12c%10[nH]c%10ccccc%12%10)CC(O)(CC)C%11)c(OC)cc9N(C)C58)C76)C(O)C5(CC)C=CCN6CCC43C65)C2)C1 (stereo not drawn) [bis[γ-(4-desacetyl VLB C-3 carboxamido)propyl]disulfide] | 7.21 | 5.20 | – | –
14 | CCC1(O)CC2CN(CCc3c([nH]c4ccccc34)C(C(=O)OC)(c3cc4c(cc3OC)N(C)C3C(O)(C(=O)NCCCCNC(=O)C5(O)C(O)C6(CC)C=CCN7CCC8(c9cc(C%10(C(=O)OC)CC%11CN(CCc%12c%10[nH]c%10ccccc%12%10)CC(O)(CC)C%11)c(OC)cc9N(C)C58)C76)C(O)C5(CC)C=CCN6CCC43C65)C2)C1 (stereo not drawn) [1,4-bis(4-desacetyl VLB C-3 carboxamido)butane] | 7.5 | 6.6 | – | –
15 | CCC1(O)CN2CCc3c([nH]c4ccccc34)C(C(=O)OC)(c3cc4c(cc3OC)N(C)C3C(O)(C(=O)OC)C(OC(C)=O)C5(CC)C=CCN6CCC43C65)CC(O)(C2)C1 (stereo not drawn) [leurocolombine] | – | – | active | –
16 | CC[C@]12CN3CCc4c([nH]c5ccccc45)[C@@](C(=O)OC)(c4cc5c(cc4OC)N(C)[C@H]4[C@@](O)(C(=O)OC)[C@H](OC(C)=O)[C@]6(CC)C=CCN7CC[C@]54[C@@H]76)C[C@H](C3)[C@H]1O2 [leurosine] | – | – | active | –
17 | CCC1(O)CC2CN(CCc3c([nH]c4ccccc34)C(C(=O)OC)(c3cc4c(cc3OC)N(C)C3C(O)(C(=O)NCCN(CCNC(=O)C5(O)C(O)C6(CC)C=CCN7CCC8(c9cc(C%10(C(=O)OC)CC%11CN(CCc%12c%10[nH]c%10ccccc%12%10)CC(O)(CC)C%11)c(OC)cc9N(C)C58)C76)CCNC(=O)C5(O)C(O)C6(CC)C=CCN7CCC8(c9cc(C%10(C(=O)OC)CC%11CN(CCc%12c%10[nH]c%10ccccc%12%10)CC(O)(CC)C%11)c(OC)cc9N(C)C58)C76)C(O)C5(CC)C=CCN6CCC43C65)C2)C1 (stereo not drawn) [tris [β-(4-desacetyl VLB C-3 carboxamido)ethyl]amine] | 7.25 | 5.2 | – | –
18 | CCC1(O)CC2CN(CCc3c([nH]c4ccccc34)C(C(=O)OC)(c3cc4c(cc3OC)N(C)C3C(O)(C(=O)NCCCNCCCNC(=O)C5(O)C(O)C6(CC)C=CCN7CCC8(c9cc(C%10(C(=O)OC)CC%11CN(CCc%12c%10[nH]c%10ccccc%12%10)CC(O)(CC)C%11)c(OC)cc9N(C)C58)C76)C(O)C5(CC)C=CCN6CCC43C65)C2)C1 (stereo not drawn) [bis[γ-(4-desacetyl VLB C-3 carboxamido)propyl]amine] | 7.17 | 4.98 | – | pKa' (third printed value) [1]: 10.18
19 | CCC1(O)CC2CN(CCc3c([nH]c4ccccc34)C(C(=O)OC)(c3cc4c(cc3OC)N(C)C3C(O)(C(=O)NCC[Se][Se]CCNC(=O)C5(O)C(O)C6(CC)C=CCN7CCC8(c9cc(C%10(C(=O)OC)CC%11CN(CCc%12c%10[nH]c%10ccccc%12%10)CC(O)(CC)C%11)c(OC)cc9N(C)C58)C76)C(O)C5(CC)C=CCN6CCC43C65)C2)C1 (stereo not drawn) [bis[β-(4-desacetyl VLB C-3 carboxamido)ethyl]diselenide] | 7.22 | 5.10 | – | –
20 | CCC1(O)CC2CN(CCc3c([nH]c4ccccc34)C(C(=O)OC)(c3cc4c(cc3OC)N(C)C3C(O)(C(=O)NCCCCCCNC(=O)C5(O)C(O)C6(CC)C=CCN7CCC8(c9cc(C%10(C(=O)OC)CC%11CN(CCc%12c%10[nH]c%10ccccc%12%10)CC(O)(CC)C%11)c(OC)cc9N(C)C58)C76)C(O)C5(CC)C=CCN6CCC43C65)C2)C1 (stereo not drawn) [1,6-bis(4-desacetyl VLB C-3 carboxamido)hexane] | 7.27 | 5.27 | – | –
21 | CCC1(O)CC2CN(CCc3c([nH]c4ccccc34)C(C(=O)OC)(c3cc4c(cc3OC)N(C)C3C(O)(C(=O)NCCOCCNC(=O)C5(O)C(O)C6(CC)C=CCN7CCC8(c9cc(C%10(C(=O)OC)CC%11CN(CCc%12c%10[nH]c%10ccccc%12%10)CC(O)(CC)C%11)c(OC)cc9N(C)C58)C76)C(O)C5(CC)C=CCN6CCC43C65)C2)C1 (stereo not drawn) [bis[β-(4-desacetyl VLB C-3 carboxamido)ethyl]ether] | 7.21 | 5.13 | – | –
